Data from patent US6755971B2, “Microbiological removal of bromine salts from fluid streams” (AKZO Nobel N.V., priority 1999, dated 2004).

Legend:
[1] = system: chlorate-reducing mixed culture; details: up to a concentration of 12 mM, separate experiments
Description: These cultures were inoculated with 1 ml of an exponentially growing culture. […] These cultures were anaerobically incubated at 30° C. in a water bath. The turbidity was measured using a Nephelometer (Hack Ratio XR, Loveland, USA). The turbidity was plotted against time for each of the concentrations and the control. The growth was derived from the slope of the regression line in a plot of In OD 660 versus time. The percentage inhibition of the growth at each concentration was calculated. […] Confidence limits were calculated on the basis of Fieller's theorem. All computations were performed using a statistical software program (SAS, Cary, N.C., USA).
Growth was followed for approximately 8 hours.

[2] = system: micro-organisms immobilised on pumice particles; experiment: Influence of high salt concentration on microbial activity (batch); type: cell-based
Description: (§1) Batch experiments were conducted in 110 ml gas-tight glass vessels, which were filled with 10 ml of mineral medium. The gas-phase and the medium in the vessels were flushed with nitrogen. Hydrogen gas was supplied by injection of a known amount using a gas-tight syringe (up to 150 kPa). Vessels were incubated at 30° C. in a shaking water bath. Micro-organisms immobilised on pumice particles were withdrawn from the gas-lift reactor whenever steady state conditions were reached and washed twice with phosphate buffer (20 mM) before use. These immobilised micro-organisms were used to inoculate the cultures. Various salt concentrations in the batch cultures were obtained by adding various amounts of sodium chloride. Sodium sulfite was added to cultures in various amounts from a freshly prepared stock solution. The test vessels for the growth experiments were inoculated by injecting 5 ml of effluent from the reactor. The micro-organisms in the effluent were washed three times with phosphate buffer (20 mM) and concentrated to 0.5 ml by centrifugation (10,000 g, 15 min). 4.4 Analytical Procedures
The effect of increased salt concentration in the reactor was investigated in batch experiments. The activity of the micro-organisms immobilised on pumice particles in the batch experiment decreased only slightly with increasing salinity, as indicated in FIG. 19. […]

mixed culture = experiment: Growth experiments with various carbon sources; type: cell-based; details: 24 mM substrate, 10 mM chlorate, 30° C., turbidity; also: key: ++: Extensive growth; +: Growth (based on turbidity of culture); +/−: Slight increase in turbidity
Description: Growth of the mixed culture with different carbon and energy sources was determined in 100 ml serum bottles with gas-tight caps filled up to 75% of their volume with mineral salts medium and 24 mM of the substrate and incubated at 30° C. Chlorate was added at a concentration of 10 mM. Growth was followed by determination of the turbidity (visually). The cultures were made anoxic by being flushed with nitrogen gas for approximately 5 minutes. Growth was followed for a maximum period of 2 months.

[3] = system: micro-organisms immobilised on pumice particles; experiment: Bacterial growth inhibition test with sulfite; type: cell-based; details: 5 days
Description: as §1
Besides chlorate and […] the waste water also contains small amounts of hypochlorite. Since hypochlorite is a biocide, removal of this compound before biological treatment is necessary. Hypochlorite can be removed instantly from the waste water using sulfite as reductant. This procedure could be used prior to the biological treatment. To examine whether sulfite is toxic to micro-organisms immobilised on the pumice particles, a toxicity test was performed. Growth was determined after 5 days, and was compared to a control culture without sulfite. The growth was determined by measuring the formation of chloride.

SMILES | Growth (mixed culture) | other results
[O-][Cl+2]([O-])O [chlorate] |  | toxicity to the mixed culture [1]: not toxic
[Cl-].[Na+] [sodium chloride] |  | effects of increased salinity on activity ([2]; 40 g/l): substantial; activity (chlorate reduction) relative to the maximum ([2]; concentration of 30 μl sodium chloride, unacclimatised micro-organisms): more than 80%
CC(=O)O [acetate] | ++ | 
O=S([O-])[O-].[Na+].[Na+] [Sulfite, sodium sulfite] |  | Growth inhibition ([3]; sulfite 15 mg/l): 4%; Growth inhibition ([3]; sulfite 45 mg/l): 0%; Growth inhibition ([3]; sulfite 135 mg/l): 6%; Growth inhibition ([3]; sulfite 405 mg/l): 7%
CCC(=O)O [propionate] | ++ | 
O=C(O)CCC(=O)O [succinate] | ++ | 
CCO [ethanol] | ++ | 
CC(O)C(=O)O (centres unmarked) [lactate] | + | 
NCC(=O)O [glycine] | +/− | 
O=C(O)CC(O)C(=O)O (centres unmarked) [malate] | ++ | 
